Test results published in ChEMBL document CHEMBL4725482, “In Silico-Guided Identification of New Potent Inhibitors of Carbonic Anhydrases Expressed in Vibrio cholerae” (ACS Med Chem Lett, 2020).
pKi: −log10 of the molar value.

Tests used:
[1] = target: Carbonic anhydrase 1 (Homo sapiens, UniProt P00915)
[2] = target: Carbonic anhydrase 2 (Homo sapiens, UniProt P00918)

Carbonic anhydrase 1, sequence (P00915 whole entry): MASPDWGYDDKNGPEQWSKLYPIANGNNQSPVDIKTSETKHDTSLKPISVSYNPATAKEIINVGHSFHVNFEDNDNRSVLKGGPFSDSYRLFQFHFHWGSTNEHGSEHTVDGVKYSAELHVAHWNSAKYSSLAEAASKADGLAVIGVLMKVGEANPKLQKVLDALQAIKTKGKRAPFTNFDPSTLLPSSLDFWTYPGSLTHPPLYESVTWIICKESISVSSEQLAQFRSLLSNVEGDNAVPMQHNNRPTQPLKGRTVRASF

pKi [1]	pKi [2]	Compound
6.57	7.58	NS(=O)(=O)c1ccc(CNC(=O)Cc2ccccc2F)cc1
7.02	7.20	NS(=O)(=O)c1ccc(CNC(=O)c2ccc(Br)cc2)cc1
7.01	7.26	NS(=O)(=O)c1ccc(CNC(=O)c2ccccc2Cc2ccccc2)cc1
6.24	7.16	CSCCC(=O)NCc1ccc(S(N)(=O)=O)cc1
7.22	8.48	Cc1cccc(C(=O)NCc2ccc(S(N)(=O)=O)cc2)c1
7.18	8.29	NS(=O)(=O)c1ccc(CNC(=O)c2cccc(Cl)c2)cc1
5.68	6.04	NS(=O)(=O)c1ccc(CNC(=O)c2ccc(-c3ccccc3)cc2)cc1
7.35	7.08	NS(=O)(=O)c1ccc(CNC(=O)c2ccsc2)cc1
7.11	7.50	NS(=O)(=O)c1ccc(CNC(=O)c2cc(Cl)ccc2Cl)cc1
